Measured values as given in publication PMC7470021, “Functionality study of chalcone-hydroxypyridinone hybrids as tyrosinase inhibitors and influence on anti-tyrosinase activity” (Journal of Enzyme Inhibition and Medicinal Chemistry, 2020).
Like-named read-outs stand apart in the source and are kept apart here.

Columns and labels:
[1] = molecular target: T1, monophenolase activity of mushroom tyrosinase (Agaricus bisporus, UniProt C7FF04); assay: Monophenolase inhibition assay (L-tyrosine substrate, dopachrome absorbance at 475 nm); settings: pH 6.8, read-out: Inhibition (%) on monophenolase activity
Method: L-Tyrosine and L-DOPA were used as reaction substrate for monophenolase and diphenolase assays, respectively. […] Finally, 20 units of enzyme was quickly added to the reaction mixture and incubated at 30 °C for 10 min. […] The assay was carried out in triplicate and DMSO was used as control[17].

mushroom tyrosinase = assay: Reversibility of inhibitory effect on tyrosinase (L-DOPA substrate); format: biochemical; settings: inhibitor 0-25 µM, 30 °C, pH 6.8
Text: Measurement method was substantially the same to that described above, changing the added concentration of the enzyme solution, different concentrations of inhibitor on mushroom tyrosinase L-DOPA as reaction substrate.

[2] = molecular target: T1, monophenolase activity of mushroom tyrosinase; design: method as in PMID 15231412; settings: at 50 μM, literature value; cited from earlier work
[3] = Copper(II) stability constants determination and pCu2+; format: physicochemical
Method: (§1) An automated titration system used in the study consists of a Metrohm 765 Dosimat autoburette, a Mettler Toledo MP230 pH metre with SENTEK pH electrode (P11), and an HP 8453 UV-visible spectrophotometer with a Hellem quartz flow cuvette being circulated through by a Gilson Mini-plus #3 pump—speed capability (20 ml/min). A potassium chloride electrolyte solution (0.1 M) was used to maintain the ionic strength. The temperature of the test solutions was maintained in a thermostatic jacketed titration vessel at 25 °C (± 0.1 °C) using a Fisherbrand Isotemp water bath. The pH electrodes were calibrated using GLEE[25] with data obtained by titrating a volumetric standard HCl (0.1 M) in KCl (0.1 M) with KOH (0.1 M) under an argon gas atmosphere in the vessel. The solution under investigation was stirred vigorously during the experiment. […] All instruments were interfaced to a computer and controlled by an in-house programme. An automated titration adopted the following strategy: the pH of a solution was increased by 0.1 pH unit by the addition of KOH solution (0.1 M) from the autoburette. The pH readings were judged to be stable if their values varied by less than 0.01 pH unit after a set incubation period. […] The cycle was repeated until the defined end point pH value was achieved. Titrations were carried out in the solution with molar ratio of DMSO: H2O being 0.2: 1 due to the solubility issue of samples and/or the corresponding copper(II) complexes. Under this condition, the pH metre readings are shifted, compared to the aqueous solution. All the titration data were analysed with the HypSpec2014 programme (http://www.hyperquad.co.uk/)[26]^,[27]. The speciation plot and pM values were calculated with the HYSS programme. Based on deferiprone titrations, pCu^2+ at pH 7.6, denoted as pCu^2+7.6, with [ligand]total = 10 µM and [Metal]total = 1 µM, were calculated as close approximations for pCu^2+ at pH 7.4 in the aqueous solution. Analytical grade reagent materials were used in the preparation of all solutions.

[4] = pKa determination by spectrophotometric titration; format: physicochemical; settings: DMSO/water solution (molar ratio 0.2:1) with 0.1 M KCl, 25 °C
Method: as §1

[5] = design: method as in PMID 26239546; settings: literature value for kojic acid; cited from earlier work
[6] = 25 °C, 0.1 M KCl, DMSO:H2O molar ratio 0.2:1

T1 sequence (G1K3P4 entry or part of it): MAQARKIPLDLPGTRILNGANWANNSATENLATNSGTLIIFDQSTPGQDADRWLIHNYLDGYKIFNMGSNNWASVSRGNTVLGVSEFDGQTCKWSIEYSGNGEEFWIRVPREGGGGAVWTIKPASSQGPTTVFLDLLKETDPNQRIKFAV
T1 sequence (C7FF04 1-392): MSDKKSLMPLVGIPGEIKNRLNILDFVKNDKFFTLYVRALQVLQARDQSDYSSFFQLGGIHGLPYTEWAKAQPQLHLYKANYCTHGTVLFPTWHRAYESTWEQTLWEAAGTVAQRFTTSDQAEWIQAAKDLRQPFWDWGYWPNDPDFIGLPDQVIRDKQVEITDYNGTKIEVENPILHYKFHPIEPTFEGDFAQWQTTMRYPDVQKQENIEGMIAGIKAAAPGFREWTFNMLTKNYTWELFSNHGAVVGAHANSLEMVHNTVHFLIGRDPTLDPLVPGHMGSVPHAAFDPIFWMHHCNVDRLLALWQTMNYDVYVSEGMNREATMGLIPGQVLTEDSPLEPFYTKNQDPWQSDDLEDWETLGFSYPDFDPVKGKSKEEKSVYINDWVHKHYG

CCCCn1cc(O)c(=O)cc1/C=C/C(=O)c1ccc(OC)cc1O [Compound 1k]
inhibition at 50 µM [1]: 64.6%

O=C(/C=C/c1cc(=O)c(O)c[nH]1)c1ccc(F)cc1 [Compound 1d]
inhibition at 50 µM [1]: 89.5%
Reversibility of inhibition on diphenolase activity of tyrosinase (mushroom tyrosinase): reversible

CCCCn1cc(O)c(=O)cc1/C=C/C(=O)c1ccc(F)cc1 [Compound 1l]
inhibition at 50 µM [1]: 50.3%

O=C(/C=C/c1ccc(O)cc1)c1ccc(O)cc1O [2′,4′,4-trihydroxychalcone]
Inhibition rate [2]: 67%

CCn1cc(O)c(=O)cc1/C=C/C(=O)c1ccc(F)cc1 [Compound 1h]
inhibition at 50 µM [1]: 57.8%

COc1ccc(C(=O)/C=C/c2cc(=O)c(O)c[nH]2)cc1OC [Compound 1n]
log β1 (log stability constant of copper complex CuLH) [3, 6]: 20.9
log β2 (log stability constant of copper complex CuL2H2) [3, 6]: 40.4
pCu2+ ([3]; [Cu]total=10^-6 M, [L]total=10^-5 M, pH 7.4, calculated from pKa and log stability constants with HYSS): 9.9
pKa ([4]; DMSO:H2O molar ratio 0.2:1, read-out: pKa (1-NH)): 12
pKa ([4]; DMSO:H2O molar ratio 0.2:1, read-out: pKa (4-oxo functional group)): 3.3
pKa ([4]; DMSO:H2O molar ratio 0.2:1, read-out: pKa (5-hydroxyl group)): 8.8
inhibition at 50 µM [1]: 87.6%

O=c1cc(CO)occ1O [Kojic acid]
pCu2+ [5]: 7.3

COc1ccc(C(=O)/C=C/c2cc(=O)c(O)cn2C)c(O)c1 [Compound 1b]
inhibition at 50 µM [1]: 66.7%

CCn1cc(O)c(=O)cc1/C=C/C(=O)c1ccccc1 [Compound 1e]
inhibition at 50 µM [1]: 63.3%

CCCCn1cc(O)c(=O)cc1/C=C/C(=O)c1ccc(O)c(O)c1 [Compound 1j]
inhibition at 50 µM [1]: 69.4%

Cn1cc(O)c(=O)cc1/C=C/C(=O)c1ccccc1 [Compound 1i]
inhibition at 50 µM [1]: 72.8%

Cn1cc(O)c(=O)cc1/C=C/C(=O)c1ccc(F)cc1 [Compound 1a]
inhibition at 50 µM [1]: 85.3%
Reversibility of inhibition on diphenolase activity of tyrosinase (mushroom tyrosinase): reversible

O=C(/C=C/c1cc(=O)c(O)c[nH]1)c1ccccc1 [Compound 1m]
inhibition at 50 µM [1]: 66.7%

COc1ccc(C(=O)/C=C/c2cc(=O)c(O)co2)c(OC)c1 [Compound 1c]
inhibition at 50 µM [1]: 50.3%

COc1ccc(C(=O)/C=C/c2cc(=O)c(O)c[nH]2)c(O)c1 [Compound 1o]
inhibition at 50 µM [1]: 63.3%

CCn1cc(O)c(=O)cc1/C=C/C(=O)c1ccc(O)c(O)c1 [Compound 1f]
inhibition at 50 µM [1]: 78.8%

CCn1cc(O)c(=O)cc1/C=C/C(=O)c1ccc(OC)cc1O [Compound 1g]
inhibition at 50 µM [1]: 71.4%
